Test results: article PMC11949107, “Polyunsaturated fatty acids and their endocannabinoid-related metabolites activity at human TRPV1 and TRPA1 ion channels expressed in HEK-293 cells” (PeerJ, 2025)
Values joined by “and” are separate entries in the source; they are usually repeats but may differ in a detail not shown here. Equal values may be shown once.

Key:
human TRPV1 [1] = biological target: T1, human TRPV1 (Homo sapiens, UniProt Q8NER1); assay: Calcium 5 dye [Ca]i assay in HEK-293 Flp-In T-REx cells expressing TRPV1 (agonist response); assay type: cell-based; conditions: for Elevation of [Ca]i in HEK-293 TRPV1 cells compared with HEK-293 EV cells / Change of Ca5 fluorescence, Mean ± SEM, TRPV1 (10 µM): 10 µM; for Change of Ca5 fluorescence, Mean ± SEM, TRPV1 (10 µM): HEK-293 TRPV1 cells, percentage of predrug baseline; for Emax at 30 µM: HEK293, read-out: Emax ± SEM % TRPV1 (30 µM); for Change in Ca5 fluorescence, individual experiments (CRC raw data): TRPV1 cells
T1 construct: Life Technologies (cells); host or cells: Flp-In T-REx HEK-293
Method in brief: (§1)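 Tetracycline-induced (1 µg ml^−1, 4 h) HEK-293 T-REx cells loaded with Calcium 5 dye plus 1.25 mM probenecid for 1 h; agonist added after 1 min baseline (0.1% DMSO final), fluorescence (485/525 nm) read every 2 s for 5 min at 37 °C. Response as % change from baseline, solvent-subtracted; EC50/Emax from three-parameter logistic fit, given as pEC50.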

human TRPA1 = biological target: T2, human TRPA1 (Homo sapiens, UniProt O75762); assay: Calcium 5 dye [Ca]i assay in HEK-293 Flp-In T-REx cells expressing TRPA1 (agonist response); assay type: cell-based; conditions: for Elevation of [Ca]i in HEK-293 TRPA1 cells compared with HEK-293 EV cells: 10 µM (cinnamaldehyde 300 µM); for Change of Ca5 fluorescence, Mean ± SEM, TRPA1 (10 µM): HEK-293 TRPA1 cells, percentage of predrug baseline; for TRPA1 activation at the highest concentration tested: 30 µM; for Emax at 30 µM: HEK293, read-out: Emax ± SEM % TRPA1 (30 µM), highest tested concentration (30 µM) or derived from concentration-response curves (cinnamaldehyde); for [Ca]i response (change in fluorescence), individual replicates: sheet Figure 4
T2 construct: Life Technologies (cells); host or cells: Flp-In T-REx HEK-293
Method in brief: as §1

HEK-293 EV cells = assay: Calcium 5 dye [Ca]i assay in HEK-293 empty vector (EV) cells; assay type: cell-based, human; conditions: 10 µM; HEK-293 EV cells; percentage of predrug baseline
Method in brief: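 Tetracycline at 1 µg ml^−1 was added 4 h before testing; cells were loaded with Calcium 5 dye for 1 h and read at 37 °C, with drug added after 1 min baseline (final 0.1% DMSO). The response was the % change from the 60 s baseline after solvent subtraction, and EC50/Emax came from a three-parameter logistic fit, reported as pEC50.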

human TRPV1 [2] = biological target: T1, human TRPV1; assay: Pre-incubation with PUFAs or capsazepine, then capsaicin (10 nM) response in HEK-293 TRPV1 cells; assay type: cell-based; conditions: for Effect of pre-treatment on the capsaicin response: 10 µM, 5 min exposure, then capsaicin 10 nM; for Post-capsaicin: response to subsequent capsaicin addition, individual experiments: capsaicin 10 nM after 5 min drug 10 µM; for Post-capsaicin: response to subsequent capsaicin addition, individual experiments / Pre-capsaicin: response to first drug, individual experiments: TRPV1 cells; for Pre-capsaicin: response to first drug, individual experiments: drug 10 µM for 5 min
Method: Intracellular calcium [Ca]i levels were assessed using the calcium 5 kit from Molecular Devices (# R8186, Sunnyvale, CA, USA) on a FlexStation 3 Microplate Reader (Molecular Devices, Sunnyvale, CA, USA). […] Probenecid (cat # 50027; Biotium) which helps to prevent expulsion of calcium indicator from the cells was added to a final concentration of 1.25 mM. 90 µL of the dye were loaded into each well of the plate and incubated for 1 h before reading in the FlexStation 3 at 37 °C. Fluorescence was recorded every 2 s (λ excitation = 485 nm, λ emission = 525 nm) for 5 min. After 1 min of baseline recording, 20 µL of the drug, dissolved in HBSS with 1% dimethyl sulfoxide (DMSO) (cat # D2650; Sigma-Aldrich, Melbourne, Australia) was added (final DMSO concentration was 0.1% in well). […]

human TRPV1 [3] = biological target: T1, human TRPV1; assay: PMA (phorbol ester) potentiation of TRPV1 responses in HEK-293 TRPV1 cells; assay type: cell-based; design: key to Drugs alone, individual experiments: change in [Ca]i as % of pre-drug baseline; conditions: for TRPV1 response after exposure to PMA: PMA 100 nM, 5 min pretreatment; for Drugs post-PMA, individual experiments: PUFA 10 µM after PMA 100 nM for 5 min, response to PMA alone subtracted; for Drugs alone, individual experiments: PUFA 10 µM without PMA pretreatment, TRPV1 cells
Method: Intracellular calcium [Ca]i levels were assessed using the calcium 5 kit from Molecular Devices (# R8186, Sunnyvale, CA, USA) on a FlexStation 3 Microplate Reader (Molecular Devices, Sunnyvale, CA, USA). […] Probenecid (cat # 50027; Biotium) which helps to prevent expulsion of calcium indicator from the cells was added to a final concentration of 1.25 mM. 90 µL of the dye were loaded into each well of the plate and incubated for 1 h before reading in the FlexStation 3 at 37 °C. Fluorescence was recorded every 2 s (λ excitation = 485 nm, λ emission = 525 nm) for 5 min. After 1 min of baseline recording, 20 µL of the drug, dissolved in HBSS with 1% dimethyl sulfoxide (DMSO) (cat # D2650; Sigma-Aldrich, Melbourne, Australia) was added (final DMSO concentration was 0.1% in well).
We initially determined the effect of PMA, another phorbol ester that is a protein kinase C activator ([Jiang & Fleet, 2012]) on HEK-293 TRPV1 expressing cells.
(A) Response of HEK-293 TRPV1 expressing cells for PMA at various concentration. […] Drugs were added for the duration of the bar; (D) The effects of PUFAs after potentiation of TRPV1 by PMA. […] Changes in [Ca]i are expressed as percentage of the pre-drug baseline, with the response to PMA alone at 5 min subtracted. The black circles represent the response of PUFAs without PMA pretreatment while the pink circles represent the response of PUFAs after PMA potentiation.

T1 sequence (Q8NER1 whole entry): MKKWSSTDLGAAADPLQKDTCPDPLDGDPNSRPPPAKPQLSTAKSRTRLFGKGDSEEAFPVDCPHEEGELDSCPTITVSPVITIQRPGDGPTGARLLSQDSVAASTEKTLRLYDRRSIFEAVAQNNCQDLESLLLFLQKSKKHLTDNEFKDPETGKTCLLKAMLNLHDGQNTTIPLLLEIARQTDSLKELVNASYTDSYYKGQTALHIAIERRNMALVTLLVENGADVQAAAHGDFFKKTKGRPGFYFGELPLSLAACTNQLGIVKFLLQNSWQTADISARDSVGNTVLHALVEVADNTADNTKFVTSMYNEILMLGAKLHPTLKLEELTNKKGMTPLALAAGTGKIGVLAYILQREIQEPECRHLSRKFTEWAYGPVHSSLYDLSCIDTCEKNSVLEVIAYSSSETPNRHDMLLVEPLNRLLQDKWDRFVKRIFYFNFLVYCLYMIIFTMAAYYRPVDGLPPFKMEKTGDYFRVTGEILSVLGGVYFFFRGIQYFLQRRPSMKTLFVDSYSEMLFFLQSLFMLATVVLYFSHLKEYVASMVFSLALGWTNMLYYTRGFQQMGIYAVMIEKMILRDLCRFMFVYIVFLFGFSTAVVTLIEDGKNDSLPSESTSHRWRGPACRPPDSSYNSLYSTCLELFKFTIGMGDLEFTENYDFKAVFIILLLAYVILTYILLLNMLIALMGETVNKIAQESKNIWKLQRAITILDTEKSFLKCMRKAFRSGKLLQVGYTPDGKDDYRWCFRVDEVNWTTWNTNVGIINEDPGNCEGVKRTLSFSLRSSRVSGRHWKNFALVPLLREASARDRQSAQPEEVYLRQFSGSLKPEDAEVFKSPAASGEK
T2 sequence (O75762 whole entry): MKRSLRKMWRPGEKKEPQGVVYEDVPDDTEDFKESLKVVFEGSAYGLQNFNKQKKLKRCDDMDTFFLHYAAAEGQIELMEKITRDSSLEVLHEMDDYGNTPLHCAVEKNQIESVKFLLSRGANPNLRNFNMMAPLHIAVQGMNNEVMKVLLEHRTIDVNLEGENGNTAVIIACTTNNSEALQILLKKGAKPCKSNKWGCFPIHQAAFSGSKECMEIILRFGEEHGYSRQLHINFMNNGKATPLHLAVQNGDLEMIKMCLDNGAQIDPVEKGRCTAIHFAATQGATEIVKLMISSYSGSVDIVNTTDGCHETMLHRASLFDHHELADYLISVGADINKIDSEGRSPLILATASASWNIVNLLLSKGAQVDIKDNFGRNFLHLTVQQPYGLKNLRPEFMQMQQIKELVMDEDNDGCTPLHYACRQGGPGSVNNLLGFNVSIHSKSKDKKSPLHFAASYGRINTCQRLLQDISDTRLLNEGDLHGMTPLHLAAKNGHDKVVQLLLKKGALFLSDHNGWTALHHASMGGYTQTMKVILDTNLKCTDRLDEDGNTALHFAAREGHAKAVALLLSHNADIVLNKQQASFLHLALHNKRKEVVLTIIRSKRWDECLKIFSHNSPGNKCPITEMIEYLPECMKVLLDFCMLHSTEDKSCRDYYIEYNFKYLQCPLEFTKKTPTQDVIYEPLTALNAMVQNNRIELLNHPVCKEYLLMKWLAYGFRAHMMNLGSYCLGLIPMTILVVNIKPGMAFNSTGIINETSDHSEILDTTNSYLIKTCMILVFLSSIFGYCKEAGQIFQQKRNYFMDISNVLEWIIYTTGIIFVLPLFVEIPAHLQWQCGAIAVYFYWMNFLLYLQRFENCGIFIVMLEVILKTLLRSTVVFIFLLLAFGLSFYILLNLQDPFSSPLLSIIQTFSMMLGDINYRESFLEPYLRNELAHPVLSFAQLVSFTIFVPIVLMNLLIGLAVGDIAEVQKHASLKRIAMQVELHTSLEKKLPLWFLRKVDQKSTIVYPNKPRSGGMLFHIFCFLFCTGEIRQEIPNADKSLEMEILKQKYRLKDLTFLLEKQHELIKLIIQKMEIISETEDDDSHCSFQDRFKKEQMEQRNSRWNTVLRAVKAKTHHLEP

Compound | Elevation of [Ca]i in HEK-293 TRPV1 cells compared with HEK-293 EV cells (human TRPV1 [1]) | Change of Ca5 fluorescence, Mean ± SEM, TRPV1 (10 µM) (human TRPV1 [1]) [%] | Emax at 30 µM (human TRPV1 [1]) [%] | Change in Ca5 fluorescence, individual experiments (CRC raw data) (human TRPV1 [1]; log concentration -4.52288 (M)) | Change in Ca5 fluorescence, individual experiments (CRC raw data) (human TRPV1 [1]; log concentration -5 (M)) | Change in Ca5 fluorescence, individual experiments (CRC raw data) (human TRPV1 [1]; log concentration -5.52288 (M)) | Change in Ca5 fluorescence, individual experiments (CRC raw data) (human TRPV1 [1]; log concentration -6 (M)) | Change in Ca5 fluorescence, individual experiments (CRC raw data) (human TRPV1 [1]; log concentration -6.52288 (M)) | Change in Ca5 fluorescence, individual experiments (CRC raw data) (human TRPV1 [1]; log concentration -7 (M)) | Elevation of [Ca]i in HEK-293 TRPA1 cells compared with HEK-293 EV cells (human TRPA1) | Change of Ca5 fluorescence, Mean ± SEM, TRPA1 (10 µM) (human TRPA1) [%] | TRPA1 activation at the highest concentration tested (human TRPA1) | Emax at 30 µM (human TRPA1) [%] | [Ca]i response (change in fluorescence), individual replicates (human TRPA1; concentration -4.52288 (log)) | [Ca]i response (change in fluorescence), individual replicates (human TRPA1; concentration -5 (log)) | [Ca]i response (change in fluorescence), individual replicates (human TRPA1; concentration -5.52288 (log)) | [Ca]i response (change in fluorescence), individual replicates (human TRPA1; concentration -6 (log)) | [Ca]i response (change in fluorescence), individual replicates (human TRPA1; concentration -6.52288 (log)) | [Ca]i response (change in fluorescence), individual replicates (human TRPA1; concentration -7 (log)) | Change of Ca5 fluorescence, Mean ± SEM, EV (10 µM) (HEK-293 EV cells) [%] | other results
CC/C=C\C/C=C\C/C=C\C/C=C\C/C=C\C/C=C\CCC(=O)O [DHA, docosahexaenoic acid] | did not produce a notable change | 11 ± 2 | 29 ± 0.8 | 30.4293 and 29.6434 and 28.2029 and 25.9718 and 28.1927 and 31.4702 | 15.398 and 14.8517 and 2.207 and 13.9869 and 10.4035 and 11.2548 | 5.597 and 6.862 and 1.798 and 7.576 | 1.539 and 8.081 and 1.374 and 8.45 and 6.148 and 5.676 | 0.111 and 3.665 and 0.7828 and 7.557 | 8.793 and 7.902 and 1.12 and 9.145 | did not produce a change | 129 ± 81 | activated TRPA1 | 408 ± 54 | 600.618 and 528.86 and 310.75 and 311.859 and 419.884 and 278.355 | 508.031 and 185.633 and 12.6409 and 8.196 and 18.5259 and 39.1466 | 5.528 and 1.551 and 4.973 and 2.123 | 3.48 and 2.006 and 3.985 and 2.738 and 3.1287 and 4.255 | 7.112 and 0.3749 and 2.033 and 5.1389 | 8.809 and 1.203 and 5.563 and 5.621 | 11 ± 2 | Effect of pre-treatment on the capsaicin response (human TRPV1 [2]): did not affect; Post-capsaicin: response to subsequent capsaicin addition, individual experiments (human TRPV1 [2]): 262.478 and 230.552 and 119.965 and 325.766 and 236.554 and 370.087; Pre-capsaicin: response to first drug, individual experiments (human TRPV1 [2]): 15.3316 and 14.4172 and 9.221 and 4.601 and 11.1415 and 4.871; TRPV1 response after exposure to PMA (human TRPV1 [3]): only observed when a phorbol ester was present; Drugs post-PMA, individual experiments (human TRPV1 [3]): 50.0906 and 48.3811 and 19.3352 and 66.6517 and 32.7216 and 44.0204 and 2.991; Drugs alone, individual experiments (human TRPV1 [3]): 3.985 and 5.867 and 0 and 3.833 and 0.4866 and -0.286 and 0.9124 and 2.207
CC/C=C\C/C=C\C/C=C\C/C=C\C/C=C\CCCC(=O)O [EPA, eicosapentaenoic acid] | did not produce a notable change | 16 ± 5 | 34 ± 5 | 41.79 and 35.9904 and 24.921 and 28.9142 and 55.0634 and 19.9806 | 41.213 and 9.61 and 11.6653 and 7.673 and 15.0259 and 7.993 | 10.434 and 4.673 and 8.042 and 0.3072 | 6.783 and 4.449 and 9.084 and 5.542 and 3.583 and -0.1759 | 4.775 and 5.179 and 8.63 and 0.2635 | 4.257 and 3.906 and 5.164 and 0.2974 | did not produce a change | 58 ± 42 | activated TRPA1 | 232 ± 67 | 377.608 and 117.826 and 193.269 and 60.6586 and 155.376 and 486.394 | 17.4998 and 14.5924 and 9.889 and 12.76 and 22.7093 and 269.088 | 2.522 and 3.13 and 3.703 and 4.731 | 1.85 and 3.994 and 3.577 and 9.657 and 3.961 and 6.207 | 1.392 and 2.613 and 2.728 and 11.1533 | 0.08029 and 3.966 and 3.106 and 5.407 | 14 ± 5 | Effect of pre-treatment on the capsaicin response (human TRPV1 [2]): did not affect; Post-capsaicin: response to subsequent capsaicin addition, individual experiments (human TRPV1 [2]): 203.333 and 227.843 and 146.783 and 264.915 and 237.782 and 308.835; Pre-capsaicin: response to first drug, individual experiments (human TRPV1 [2]): 16.1107 and 14.1511 and 10.793 and 4.456 and 14.6833 and 13.0981; TRPV1 response after exposure to PMA (human TRPV1 [3]): only observed when a phorbol ester was present; Drugs post-PMA, individual experiments (human TRPV1 [3]): 49.2015 and 39.5321 and 37.0404 and 36.9714 and 31.5302 and 32.9212; Drugs alone, individual experiments (human TRPV1 [3]): 7.525 and 11.4184 and 9.766 and 10.5311 and 6.999 and 3.475 and 2.716 and 6.787 and 18.8884
